Test results as given in patent US20220193163A1, “COMPOSITION COMPRISING ACTINIDIA POLYGAMA EXTRACT FOR ALLEVIATING SKIN DAMAGE OR MOISTURIZING SKIN” (G&P BIOSCIENCE CO., LTD., priority 2019, published 2022).

Tests used:
[1] = DPPH radical-scavenging ability; assay type: biochemical
Procedure: DPPH [[…]] is a free-radical compound. […] Accordingly, antioxidant activity can be compared from the ratio of decolorized DPPH radicals. After mixing 50 μL of a 0.36 mM DPPH solution and 50 μL of a test substance dissolved in ethanol at 1:1 and conducting reaction at room temperature in the dark for 30 minutes, absorbance was measured at 540 nm. The DPPH radical-scavenging ability of Example 1, Comparative Example 1 and Comparative Example 2 of different darae species at different concentrations was calculated from the measured absorbance.

[2] = ABTS radical-scavenging ability; assay type: biochemical
Procedure: After dissolving 7.4 mM 2,2-azino-bis(3-ethylbenzthiazoline-6-sulfonic acid) and 2.6 mM potassium persulfate respectively in distilled water and mixing at 1:1, ABTS^+ is formed by conducting reaction at room temperature in the dark for 24 hours. 24 hours later, the ABTS solution was diluted to purified water to adjust absorbance at 732 nm to 0.7. Then, after adding 10 μL of a test substance to 190 μL of the ABTS solution and conducting reaction in the dark for 10 minutes, absorbance was measured at 732 nm. The ABTS radical-scavenging ability of Example 1, Comparative Example 1 and Comparative Example 2 of different darae species at different concentrations was calculated from the measured absorbance.

DPPH radical-scavenging ability IC50 [1] | ABTS radical-scavenging ability IC50 [2] | SMILES
30 ± 10 µg/mL |  | O=C1O[C@H]([C@@H](O)CO)C(O)=C1O [L-Ascorbic acid]
 | 100 ± 10 µg/mL | Cc1c(C)c2c(c(C)c1O)CCC(C)(C(=O)O)O2 (centres unmarked) [Trolox]
